# Laboratory results published in ChEMBL document CHEMBL6083220, “Chemically induced degradation of PRC2 complex by EZH2-Targeted PROTACs via a Ubiquitin-Proteasome pathway” (Bioorg Med Chem Lett, 2024).
# Calls of active or inactive are those of the source. The calls are words filed in the database; no cut-off is given here.
# Assays:
# [1] = MRT(0 to infinity) in ICR mouse at 10 mg/kg, po; type: ADME, organism-based; conditions: in vivo
# MINO [2] = assay: Induction of mitochondrial apoptosis pathway in human MINO cells assessed as downregulation of bcl-2 expression at 5 uM incubated for 24 hrs by Western blotting assay; type: functional, cell-based
# MINO [3] = assay: Downregulation of RbAp48 protein expression in human MINO cells at 5 uM incubated for 24 hrs by Western blotting assay; type: functional, cell-based
# MINO [4] = assay: Induction of mitochondrial apoptosis pathway in human MINO cells assessed as upregulation of cleaved PARP expression at 5 uM incubated for 24 hrs by Western blotting assay; type: functional, cell-based
# [5] = Induction of apoptosis in human MINO cells assessed as early apoptotic cells at 5 uM incubated for 24 hrs by Annexin V-FITC/PI staining based flow cytometry assay (reference value: 1.04%); type: functional
# [6] = target: Polycomb protein EED (Homo sapiens) (UniProt O75530); assay: Binding affinity to EED in human MINO cells assessed as increase in thermal stability at 5 uM at 5 to 10 degreeC incubated for 24 hrs by CETSA; type: cell-based
# [7] = Apparent volume of distribution in ICR mouse at 2 mg/kg, iv; type: ADME, organism-based; conditions: in vivo, read-out: Vz
# MINO [8] = assay: Downregulation of H3k27me3 protein expression in human MINO cells at 5 uM incubated for 24 hrs by Western blotting assay; type: functional, cell-based
# [9] = target: Histone-lysine N-methyltransferase EZH2 (Homo sapiens) (UniProt Q15910); assay: Binding affinity to EZH2 in human MINO cells assessed as increase in thermal stability at 5 uM at 5 to 10 degreeC incubated for 24 hrs by CETSA; type: cell-based
# MINO [10] = assay: Induction of mitochondrial apoptosis pathway in human MINO cells assessed as upregulation of cytochrome C expression at 5 uM incubated for 24 hrs by Western blotting assay; type: functional, cell-based
# [11] = AUC(0 to infinity) in ICR mouse at 10 mg/kg, po; type: ADME, organism-based; conditions: in vivo
# [12] = Tmax in ICR mouse at 10 mg/kg, po; type: ADME, organism-based; conditions: in vivo
# [13] = Induction of apoptosis in human MINO cells assessed as late apoptotic cells at 5 uM incubated for 24 hrs by Annexin V-FITC/PI staining based flow cytometry assay (reference value: 8.29%); type: functional
# [14] = Cmax in ICR mouse at 2 mg/kg, iv; type: ADME, organism-based; conditions: in vivo
# [15] = Antiproliferative activity against human MINO cells by MTT assay; type: functional, cell-based
# [16] = Induction of cell cycle arrest in human MINO cells assessed as G0/G1 phase cells at 5 uM incubated for 24 hrs by propidium iodide staining based flow cytometry assay (reference value: 67.56%); type: functional
# [17] = Induction of cell cycle arrest in human MINO cells assessed as G2/M phase cells at 5 uM incubated for 24 hrs by propidium iodide staining based flow cytometry assay (reference value: 7.26%); type: functional
# OCI-Ly7 = assay: Antiproliferative activity against human OCILY7 cells by MTT assay; type: functional, cell-based
# [18] = Induction of apoptosis in human MINO cells assessed as viable cells at 5 uM incubated for 24 hrs by Annexin V-FITC/PI staining based flow cytometry assay (reference value: 89.93%); type: functional; conditions: read-out: Activity
# MINO [19] = assay: Induction of mitochondrial apoptosis pathway in human MINO cells assessed as upregulation of bax protein expression at 5 uM incubated for 24 hrs by Western blotting assay; type: functional, cell-based
# MINO [20] = assay: PROTAC activity at EZH2/E3 ligase in human MINO cells assessed as reduction in EZH2 protein level incubated for 24 hrs by Western blotting assay; type: cell-based; conditions: dose 0.02-20 µM
# MINO [21] = assay: Binding affinity to RbAp48 in human MINO cells assessed as increase in thermal stability at 5 uM at 5 to 10 degreeC incubated for 24 hrs by CETSA; type: cell-based
# [22] = MRT(0 to t) in ICR mouse at 10 mg/kg, po; type: ADME, organism-based; conditions: in vivo
# MINO [23] = assay: Downregulation of EZH2 protein expression in human MINO cells at 5 uM incubated for 24 hrs by Western blotting assay; type: functional, cell-based
# MINO [24] = assay: PROTAC activity at EZH2/E3 ligase in human MINO cells assessed as reduction in EZH2 protein level at 1 to 2.5 uM incubated for 24 hrs by Western blotting assay; type: cell-based; conditions: dose 1-2.5 µM
# MINO [25] = assay: PROTAC activity at EZH2/E3 ligase in human MINO cells assessed as reduction in EZH2 protein level at 5 uM incubated for 24 hrs by Western blotting assay; type: cell-based; set-up: scale not given: the % may be the effect or the level left
# [26] = Half-life in ICR mouse at 10 mg/kg, po; type: ADME, organism-based; conditions: in vivo
# [27] = Initial plasma concentration in ICR mouse at 2 mg/kg, iv; type: ADME, organism-based
# [28] = Potency index, ratio of tazemetostat IC50 to test compound IC50 for antiproliferative activity against human MINO cells; type: functional
# [29] = Induction of cell cycle arrest in human MINO cells assessed as S phase cells at 5 uM incubated for 24 hrs by propidium iodide staining based flow cytometry assay (reference value: 25.19%); type: functional
# [30] = Induction of apoptosis in human MINO cells assessed as necrotic cells at 5 uM incubated for 24 hrs by Annexin V-FITC/PI staining based flow cytometry assay (reference value: 0.74%); type: functional
# [31] = AUC(0 to infinity) in ICR mouse at 2 mg/kg, iv; type: ADME, organism-based; conditions: in vivo
# [32] = Cmax in ICR mouse at 10 mg/kg, po; type: ADME, organism-based; conditions: in vivo
# [33] = AUC(0 to t) in ICR mouse at 2 mg/kg, iv; type: ADME, organism-based; conditions: in vivo
# MINO [34] = assay: Induction of mitochondrial apoptosis pathway in human MINO cells assessed as downregulation of procaspase-3 expression at 5 uM incubated for 24 hrs by Western blotting assay; type: functional, cell-based
# MINO [35] = assay: Downregulation of SUZ12 protein expression in human MINO cells at 5 uM incubated for 24 hrs by Western blotting assay; type: functional, cell-based
# [36] = Half-life in ICR mouse at 2 mg/kg, iv; type: ADME, organism-based; conditions: in vivo
# MINO [37] = assay: Induction of mitochondrial apoptosis pathway in human MINO cells assessed as downregulation of procaspase-9 expression at 5 uM incubated for 24 hrs by Western blotting assay; type: functional, cell-based
# [38] = target: Polycomb protein SUZ12 (Homo sapiens) (UniProt Q15022); assay: Binding affinity to SUZ12 in human MINO cells assessed as increase in thermal stability at 5 uM at 5 to 10 degreeC incubated for 24 hrs by CETSA; type: cell-based
# [39] = Clearance in ICR mouse at 2 mg/kg, iv; type: ADME, organism-based; conditions: in vivo
# [40] = AUC(0 to t) in ICR mouse at 10 mg/kg, po; type: ADME, organism-based; conditions: in vivo
# MINO [41] = assay: Downregulation of EED protein expression in human MINO cells at 5 uM incubated for 24 hrs by Western blotting assay; type: functional, cell-based
# [42] = Volume of distribution at steady state in ICR mouse at 2 mg/kg, iv; type: ADME, organism-based; conditions: in vivo, read-out: Vdss
# [43] = Bioavailability in ICR mouse at 2 mg/kg, iv; type: ADME, organism-based; conditions: in vivo
# [44] = MRT(0 to infinity) in ICR mouse at 2 mg/kg, iv; type: ADME, organism-based; conditions: in vivo
# [45] = Tmax in ICR mouse at 2 mg/kg, iv; type: ADME, organism-based; conditions: in vivo
# [46] = MRT(0 to t) in ICR mouse at 2 mg/kg, iv; type: ADME, organism-based; conditions: in vivo
# Sequence of Polycomb protein SUZ12 (Homo sapiens) (Q15022 whole entry): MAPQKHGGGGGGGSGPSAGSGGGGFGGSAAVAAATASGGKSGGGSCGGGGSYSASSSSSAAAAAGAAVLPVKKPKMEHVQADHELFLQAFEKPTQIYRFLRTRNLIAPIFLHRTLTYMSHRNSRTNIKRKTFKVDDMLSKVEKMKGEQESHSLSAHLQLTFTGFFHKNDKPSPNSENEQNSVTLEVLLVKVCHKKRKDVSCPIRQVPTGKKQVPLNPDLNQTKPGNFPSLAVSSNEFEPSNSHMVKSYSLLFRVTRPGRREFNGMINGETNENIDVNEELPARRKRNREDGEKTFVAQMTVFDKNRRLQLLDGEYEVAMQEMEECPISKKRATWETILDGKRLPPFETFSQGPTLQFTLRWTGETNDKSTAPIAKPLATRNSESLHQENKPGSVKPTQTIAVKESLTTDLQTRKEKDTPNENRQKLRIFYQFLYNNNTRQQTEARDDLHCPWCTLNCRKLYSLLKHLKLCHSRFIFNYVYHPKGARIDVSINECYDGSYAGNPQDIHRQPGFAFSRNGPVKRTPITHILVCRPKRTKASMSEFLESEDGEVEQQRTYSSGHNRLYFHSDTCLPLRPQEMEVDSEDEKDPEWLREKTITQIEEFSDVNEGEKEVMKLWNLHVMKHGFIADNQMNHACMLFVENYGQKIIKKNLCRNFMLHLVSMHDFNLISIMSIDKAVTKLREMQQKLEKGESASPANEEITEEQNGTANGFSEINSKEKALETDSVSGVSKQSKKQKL
# Sequence of Polycomb protein EED (Homo sapiens) (O75530 2-441 limits assumed): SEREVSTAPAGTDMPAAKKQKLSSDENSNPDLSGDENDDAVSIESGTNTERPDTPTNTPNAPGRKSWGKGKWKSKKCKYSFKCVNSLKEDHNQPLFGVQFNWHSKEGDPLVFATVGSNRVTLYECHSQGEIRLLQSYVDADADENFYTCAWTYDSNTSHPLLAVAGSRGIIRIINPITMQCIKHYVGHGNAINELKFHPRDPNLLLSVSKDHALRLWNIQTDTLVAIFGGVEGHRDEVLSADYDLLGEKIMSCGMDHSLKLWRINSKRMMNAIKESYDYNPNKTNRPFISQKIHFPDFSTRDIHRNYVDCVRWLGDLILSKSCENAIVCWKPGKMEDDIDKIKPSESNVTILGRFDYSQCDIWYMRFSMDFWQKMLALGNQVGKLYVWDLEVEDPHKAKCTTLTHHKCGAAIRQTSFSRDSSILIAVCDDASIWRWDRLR
# Sequence of Histone-lysine N-methyltransferase EZH2 (Homo sapiens) (Q15910 whole entry, looked up): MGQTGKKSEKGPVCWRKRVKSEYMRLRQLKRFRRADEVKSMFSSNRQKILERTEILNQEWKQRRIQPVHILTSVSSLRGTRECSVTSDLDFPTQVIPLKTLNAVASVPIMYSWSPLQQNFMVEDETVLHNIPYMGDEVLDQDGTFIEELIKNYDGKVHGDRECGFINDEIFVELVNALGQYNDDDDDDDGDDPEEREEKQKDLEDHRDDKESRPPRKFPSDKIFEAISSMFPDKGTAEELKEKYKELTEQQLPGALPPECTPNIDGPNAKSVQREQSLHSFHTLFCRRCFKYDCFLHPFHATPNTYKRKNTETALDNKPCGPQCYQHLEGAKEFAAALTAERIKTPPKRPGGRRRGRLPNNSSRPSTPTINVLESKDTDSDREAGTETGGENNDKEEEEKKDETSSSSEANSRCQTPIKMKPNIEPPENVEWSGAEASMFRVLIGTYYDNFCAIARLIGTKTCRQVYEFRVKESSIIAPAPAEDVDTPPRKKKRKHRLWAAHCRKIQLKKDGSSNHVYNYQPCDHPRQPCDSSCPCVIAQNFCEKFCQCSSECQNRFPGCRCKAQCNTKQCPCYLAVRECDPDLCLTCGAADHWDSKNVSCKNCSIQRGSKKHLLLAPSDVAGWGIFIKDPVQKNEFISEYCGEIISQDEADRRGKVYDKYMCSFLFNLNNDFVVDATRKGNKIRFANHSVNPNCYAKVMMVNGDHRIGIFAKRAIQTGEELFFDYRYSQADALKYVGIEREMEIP
compound,measurement,setting,value
CCN(c1cc(-c2ccc(CN3CCN(C(=O)CC4CCC(CNc5cccc6c5C(=O)N(C5CCC(=O)NC5=O)C6=O)CC4)CC3)cc2)cc(C(=O)NCc2c(C)cc(C)[nH]c2=O)c1C)C1CCOCC1 (configuration not stated),MRT inf,[1],17.6 h
same,Activity,MINO [2],Active
same,Activity,MINO [3],Active
same,Activity,MINO [4],Active
same,Activity,[5],4.89%
same,Activity,[6],inactive
same,Vd,[7],0.329 L/kg
same,Activity,MINO [8],Active
same,Activity,[9],Active
same,Activity,MINO [10],Active
same,AUC(0-inf),[11],40.5 µg·h/mL
same,Tmax,[12],0.83 h
same,Activity,[13],57.55%
same,Cmax,[14],7.21 µg/mL
same,IC50,[15],0.005 µM
same,Activity,[16],79.47%
same,Activity,[17],6.11%
same,IC50,OCI-Ly7,0.15 µM
same,viability at 5 µM,[18],35.6%
same,Activity,MINO [19],Active
same,Activity,MINO [20],Dose-dependent-effect
same,Activity,MINO [21],inactive
same,MRT last,[22],8.87 h
same,Activity,MINO [23],Active
same,Activity,MINO [24],Active; Significant And Potent Activity Observed
same,Activity,MINO [25],100%
same,half-life,[26],11.7 h
same,C0,[27],6.5 µg/mL
same,Ratio IC50,[28],214
same,Activity,[29],14.41%
same,Activity,[30],2%
same,AUC(0-inf),[31],190 µg·h/mL
same,Cmax,[32],2.98 µg/mL
same,AUC(0-t),[33],98.4 µg·h/mL
same,Activity,MINO [34],Active
same,Activity,MINO [35],Active
same,half-life,[36],21.9 h
same,Activity,MINO [37],Active
same,Activity,[38],inactive
same,clearance,[39],0.0115 L/h/kg
same,AUC(0-t),[40],29.7 µg·h/mL
same,Activity,MINO [41],Active
same,Vd,[42],0.323 L/kg
same,bioavailability,[43],6.05%
same,MRT inf,[44],31.4 h
same,Tmax,[45],0.42 h
same,MRT last,[46],9.7 h
